Data published in US7192982B2, “Modulators of peroxisome proliferator activated receptors” (Ligand Pharmaceuticals, Inc., priority 2001, dated 2007).

Key:
[1] = system: mice, transgenic for human apoAI; experiment: Evaluation of triglyceride and cholesterol levels in HuapoAI transgenic mice; type: in vivo; details: hu apoAI transgenic mice
Method: Five to six week old male mice, transgenic for human apoAI [C57B1/6-tgn(apoa1)1rub, Jackson Laboratory, Bar Harbor, Me.] were housed five per cage (10″×20″×8″ with aspen chip bedding) with food (Purina 5001) and water available at all times. After an acclimation period of 2 weeks, animals were individually identified by ear notches, weighed and assigned to groups based on body weight. Beginning the following morning, mice were dosed daily by oral gavage for 7 days using a 20 gauge, 1½″ curved disposable feeding needle. Treatments were test compounds (30 mg/kg), a positive control (fenofibrate, 100 mg/kg) or vehicle [1% carboxymethylcellulose (w/v)/0.25% Tween80 (w/v); 0.2 ml/mouse]. Prior to termination on day 7, mice were weighed and dosed. Three hours after dosing, animals were anesthetized by inhalation of isoflurane (2–4%) and blood obtained via cardiac puncture (0.7–1.0 ml). Whole blood was transferred to serum separator tubes (Vacutainer SST), chilled on ice and permitted to clot. Serum, was obtained after centrifugation at 4° C. and frozen until analysis for triglycerides, total cholesterol, compound levels and serum lipoprotein profiled by fast protein liquid, chromatography (FPLC) coupled to an inline detection system. After sacrifice by cervical dislocation, the liver, heart and epididymal fat pads were excised and weighed.
Glucose was measured colorimetrically by using commercially purchased reagents (Sigma #315-500). According to the manufacturers, the procedures were modified from published work (McGowan et al. Clin Chem, 20:470–5 (1974) and Keston, A. Specific colorimetric enzymatic analytical reagents for glucose. Abstract of papers 129th Meeting ACS, 31C (1956).); and depend on the release of a mole of hydrogen peroxide for each mole of analyte coupled with a color reaction first described by Trinder (Trinder, P. Ann Clin Biochem, 6:24 (1969)). The absorbance of the dye produced was linearly related to the analyte in the sample. The assays was further modified for use in a 96 well format. Standards (Sigma #339-11, Sigma #16-11, and Sigma #CC0534 for glucose, triglycerides and total cholesterol, respectively), quality control plasma (Sigma # A2034), and samples-(2 or 5 μl well) were measured in duplicate using 200 μl of reagent. An additional aliquot of sample, pipetted to a third well and diluted in 200 μl water, provided ai blank for each specimen. Plates were incubated at room temperature (18, 15, and 10 minutes for glucose, triglycerides and total cholesterol, respectively) on a plate shaker and absorbance read at 500 nm (glucose and total cholesterol) or 540 nm (triglycerides) on a plate reader. Sample absorbance was compared to a standard curve (100–800, 10–500, and 100–400 mg/dl for glucose, triglycerides and total cholesterol, respectively). Values for the quality control sample wee consistently within the expected range and the coefficient of variation for samples is below 10%. All samples from an experiment were assayed at the same time to minimize inter-assay variability.
Serum lipoproteins were separated and cholesterol was quantitated with an in-line detection system. Sample was applied to a Superose® 6 HR 10/30 size exclusion column (Amersham Pharmacia Biotech) and eluted with phosphate buffered saline-EDTA at 0.5 ml/min. Cholesterol reagent (Roche Diagnostics Chol/HP 704036) at 0.16 ml/min was mixed with the column effluent through a T-connection, and the mixture was passed through a 15 m×0.5 mm id knitted tubing reactor immersed in a 37° C. water bath. The colored product produced in the presence of cholesterol was monitored in the flow stream at 505 nm, and the analog voltage from the monitor was converted to a digital signal for collection and analysis. The change in voltage corresponding to change in cholesterol concentration was plotted against time, and the area under the curve corresponding to the elution of VLDL, LDL and HDL was calculated (Perkin Elmer Turbochrome software).

Row | Structure (SMILES) | melting point [°C] | mean percent increase of HDLc ([1]; FPLC of pooled sera, 100 mg/kg oral daily for 7 days, versus vehicle) [%] | high-density lipoprotein cholesterol (HDLc) peak area ([1]; FPLC of pooled sera, 100 mg/kg oral daily for 7 days, vehicle 47 v-sec to 62 v-sec) | mean elevation of total serum cholesterol ([1]; 100 mg/kg oral gavage daily for 7 days, versus vehicle) [%] | average total serum cholesterol values ([1]; 100 mg/kg oral gavage daily for 7 days, vehicle about 140 to 180 mg/dl) [mg/dL] | mean reduction of triglycerides ([1]; serum, 100 mg/kg oral gavage daily for 7 days, versus vehicle) [%] | average triglycerides values ([1]; serum, 100 mg/kg oral gavage daily for 7 days, vehicle about 60 to 80 mg/dl) [mg/dL]
1 | CO[C@@H](Cc1ccc(C#CCOc2ccc(-c3ccccc3)cc2)cc1)C(=O)O [Example 1, (2S)-3-{4-[3-(Biphenyl-4-yloxy)-prop-1-ynyl]-phenyl}-2-methoxy-propionic acid] | 111 to 112 | – | – | – | – | – | –
2 | CC(C)OC(=O)C(C)(C)Oc1ccc(C(=O)c2ccc(Cl)cc2)cc1 [fenofibrate] | – | 48 | 68–96 v-sec | 41 | 190 to 280 | 37 | 33 to 58
